≈ marks a conversion by molar mass, not a printed value.
Assays:
Type in all cases: cell-based
[1] = tested on: P. aeruginosa strain MP-3; assay: Broth dilution MIC determination (CLSI) against P. aeruginosa strain MP-3; conditions: Pseudomonas aeruginosa, MP3
Outline: (§1)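 Reported scores reflect MIC ranges, with +++ at or below 4 mg/L, ++ from 8 up to under 32 mg/L, and + at 32 mg/L or higher. The macrolides were tested following CLSI broth dilution procedures.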

[2] = tested on: A. baumannii strain MP-15; assay: Broth dilution MIC determination (CLSI) against A. baumannii strain MP-15; conditions: Acinetobacter baumannii, MP15
Outline: as §1

S. aureus strain MP-12 = assay: Broth dilution MIC determination (CLSI) against S. aureus strain MP-12; conditions: Staphylococcus aureus, MP12, strain MP-12
Outline: as §1

[3] = tested on: K. pneumoniae strain MP-548; assay: Broth dilution MIC determination (CLSI) against K. pneumoniae strain MP-548; conditions: Klebsiella pneumoniae, MP548
Outline: as §1

E. coli strain MP-4 = assay: Broth dilution MIC determination (CLSI) against E. coli strain MP-4; conditions: Escherichia coli, MP4
Outline: as §1

SMILES | MIC [1] | MIC [2] | MIC (S. aureus strain MP-12) | MIC [3] | MIC (E. coli strain MP-4)
CC[C@H]1OC(=O)C(C)C(=O)[C@H](C)[C@@H](OC2OC(CNC3CC3)CC(N(C)C)C2O)[C@](C)(OC)C[C@@H](C)C(=O)N[C@H](C)[C@H]2NC(=O)O[C@@]21C (stereo partly shown) [Compound 189, 3-Descladinosyl-3-oxo-6-O-methyl-8-oxo-N9a-desmethyl-11,12-dideoxy-12,11-(oxycarbonylimino)-6′-cyclopropylamino Azithromycin] | ≥ 32 µg/mL | ≥ 32 µg/mL | ≥ 32 µg/mL | ≥ 32 µg/mL | ≥ 32 µg/mL
CCNCC1CC(N(C)C)C(O)C(O[C@@H]2[C@@H](C)C(=O)C(C)C(=O)O[C@H](CC)[C@@]3(C)OC(=O)N[C@@H]3[C@@H](C)NC[C@H](C)C[C@@]2(C)OC)O1 (stereo partly shown) [Compound 108, 3-Descladinosyl-3-oxo-6-O-methyl-N9a-desmethyl-11,12-dideoxy-12,11-(oxycarbonylimino)-6′-ethylamino azithromycin] | ≥ 32 µg/mL | ≥ 32 µg/mL | ≥ 32 µg/mL | ≥ 32 µg/mL | 8 to 32 µg/mL (≈ 12.2 to 48.7 µM)
CC[C@H]1OC(=O)C(C)C(=O)[C@H](C)[C@@H](O[C@@H]2O[C@H](CN(C)C(=O)CN(C)C)CC(N(C)C)[C@H]2O)[C@](C)(OC)C[C@@H](C)CN[C@H](C)[C@H]2NC(=O)O[C@@]21C (stereo partly shown) [Compound 171, 3-Descladinosyl-3-oxo-6-O-methyl-N9a-desmethyl-11,12-dideoxy-12,11-(oxycarbonylimino)-6′-N-methyl-2″-dimethylamino-acetamide Azithromycin] | ≥ 32 µg/mL | ≥ 32 µg/mL | ≥ 32 µg/mL | ≥ 32 µg/mL | ≤ 4 µg/mL
CC[C@H]1OC(=O)C(C)C(=O)[C@H](C)[C@@H](O[C@@H]2O[C@H](CNC3CC3)CC(N(C)C)[C@H]2O)[C@](C)(OC)C[C@@H](C)CN(C)[C@H](C)[C@H]2N(C)C(=O)O[C@]12C (stereo partly shown) [Compound 191] | ≥ 32 µg/mL | ≥ 32 µg/mL | ≥ 32 µg/mL | 8 to 32 µg/mL (≈ 11.5 to 45.9 µM) | ≤ 4 µg/mL
CC[C@H]1OC(=O)C(C)C(=O)[C@H](C)[C@@H](OC2OC(CNCC(F)F)CC(N(C)C)C2O)[C@](C)(OC)C[C@@H](C)CN[C@H](C)[C@H]2NC(=O)O[C@@]21C (stereo partly shown) [Compound 136, 3-Descladinosyl-3-oxo-6-O-methyl-N9a-desmethyl-11,12-dideoxy-12,11-(oxycarbonylimino)-6′-difluoroethylamino Azithromycin] | ≥ 32 µg/mL | ≥ 32 µg/mL | 8 to 32 µg/mL (≈ 11.5 to 46.2 µM) | 8 to 32 µg/mL (≈ 11.5 to 46.2 µM) | ≤ 4 µg/mL
CC[C@H]1OC(=O)[C@@](C)(F)C(=O)[C@H](C)[C@@H](O[C@@H]2OC(COC/C=C/c3cncnc3)CC(N(C)C)C2O)[C@](C)(OC)C[C@@H](C)C(=O)[C@H](C)[C@H]2NC(=O)O[C@@]21C (stereo partly shown) [Compound 105] | ≥ 32 µg/mL | ≥ 32 µg/mL | ≤ 4 µg/mL | ≥ 32 µg/mL | ≥ 32 µg/mL
CC[C@H]1OC(=O)[C@@](C)(F)C(=O)[C@H](C)[C@@H](O[C@@H]2OC(COC/C=C/c3cnc4ccccc4c3)CC(N(C)C)C2O)[C@](C)(OC)C[C@@H](C)C(=O)[C@H](C)[C@H]2NC(=O)O[C@@]21C (stereo partly shown) [Compound 104] | ≥ 32 µg/mL | 8 to 32 µg/mL (≈ 9.83 to 39.3 µM) | ≤ 4 µg/mL | ≥ 32 µg/mL | ≥ 32 µg/mL
CC[C@H]1OC(=O)C(C)C(=O)[C@H](C)[C@@H](OC2OC(CNCCF)CC(N(C)C)C2O)[C@](C)(OC)C[C@@H](C)CN[C@H](C)[C@H]2NC(=O)O[C@@]21C (stereo partly shown) [Compound 111, 3-Descladinosyl-3-oxo-6-O-methyl-N9a-desmethyl-11,12-dideoxy-12,11-(oxycarbonylimino)-6′-(2-fluoroethylamino) Azithromycin] | ≥ 32 µg/mL | ≥ 32 µg/mL | ≥ 32 µg/mL | ≤ 4 µg/mL | ≤ 4 µg/mL
CC[C@H]1OC(=O)[C@@](C)(F)C(=O)[C@H](C)[C@@H](O[C@@H]2OC(CNCc3ccc(-c4cncnc4)cc3)CC(N(C)C)C2O)[C@](C)(OC)C[C@@H](C)C(=O)[C@H](C)[C@H]2NC(=O)O[C@@]21C (stereo partly shown) [Compound 92] | ≥ 32 µg/mL | ≥ 32 µg/mL | ≤ 4 µg/mL | ≥ 32 µg/mL | ≥ 32 µg/mL
CC[C@H]1OC(=O)C(C)C(=O)[C@H](C)[C@@H](OC2OC(CN(C)CC)CC(N(C)C)C2O)[C@](C)(OC)C[C@@H](C)CN(C)[C@H](C)[C@H]2NC(=O)O[C@@]21C (stereo partly shown) [Compound 158, 3-Descladinosyl-3-oxo-6-O-methyl-11,12-dideoxy-12,11-(oxycarbonylimino)-6′-ethylmethylamino Azithromycin] | ≥ 32 µg/mL | ≥ 32 µg/mL | ≥ 32 µg/mL | 8 to 32 µg/mL (≈ 11.7 to 46.7 µM) | ≤ 4 µg/mL
CCCCCCCCCCNCC1CC(N(C)C)C(O)[C@H](O[C@@H]2[C@@H](C)C(=O)C(C)C(=O)O[C@H](CC)[C@@]3(C)OC(=O)N[C@@H]3[C@@H](C)NC[C@H](C)C[C@@]2(C)OC)O1 (stereo partly shown) [Compound 55] | ≥ 32 µg/mL | ≥ 32 µg/mL | ≥ 32 µg/mL | ≥ 32 µg/mL | 8 to 32 µg/mL (≈ 10.4 to 41.6 µM)
CC[C@H]1OC(=O)C(C)C(=O)[C@H](C)[C@@H](O[C@@H]2OC(CNCc3ccc(OC)cc3)CC(N(C)C)C2O)[C@](C)(OC)C[C@@H](C)CN[C@H](C)[C@H]2NC(=O)O[C@@]21C (stereo partly shown) [Compound 42] | ≥ 32 µg/mL | ≥ 32 µg/mL | ≥ 32 µg/mL | ≥ 32 µg/mL | ≤ 4 µg/mL
CC[C@H]1OC(=O)C(C)C(=O)[C@H](C)[C@@H](OC2OC(CN[C@@H]3C[C@H]3C)CC(N(C)C)C2O)[C@](C)(OC)C[C@@H](C)CN[C@H](C)[C@H]2NC(=O)O[C@@]21C (stereo partly shown) [Compound 134, 3-Descladinosyl-3-oxo-6-O-methyl-N9a-desmethyl-11,12-dideoxy-12,11-(oxycarbonylimino)-6′-((1″R,2″R)-2″-methylcyclopropyl)amino Azithromycin] | ≥ 32 µg/mL | 8 to 32 µg/mL (≈ 11.7 to 46.9 µM) | ≥ 32 µg/mL | ≤ 4 µg/mL | ≤ 4 µg/mL
CC[C@H]1OC(=O)[C@@](C)(F)C(=O)[C@H](C)[C@@H](O[C@@H]2OC(CNCc3ccn(C)n3)CC(N(C)C)C2O)[C@](C)(OC)C[C@@H](C)C(=O)[C@H](C)[C@H]2NC(=O)O[C@@]21C (stereo partly shown) [Compound 102] | ≥ 32 µg/mL | ≥ 32 µg/mL | ≤ 4 µg/mL | ≥ 32 µg/mL | 8 to 32 µg/mL (≈ 10.8 to 43.3 µM)
CC[C@H]1OC(=O)C(C)C(=O)[C@H](C)[C@@H](OC2OC(CN(C)C3CCC3)CC(N(C)C)C2O)[C@](C)(OC)C[C@@H](C)CN[C@H](C)[C@H]2NC(=O)O[C@@]21C (stereo partly shown) [Compound 150, 3-Descladinosyl-3-oxo-6-O-methyl-N9a-desmethyl-11,12-dideoxy-12,11-(oxycarbonylimino)-6′-methylcyclobutylamino Azithromycin] | ≥ 32 µg/mL | ≥ 32 µg/mL | ≥ 32 µg/mL | ≥ 32 µg/mL | 8 to 32 µg/mL (≈ 11.5 to 45.9 µM)
CC[C@H]1OC(=O)C(C)C(=O)[C@H](C)[C@@H](O[C@@H]2OC(CNCc3ccn(C)n3)CC(N(C)C)C2O)[C@](C)(OC)C[C@@H](C)CN[C@H](C)[C@H]2NC(=O)O[C@@]21C (stereo partly shown) [Compound 21] | ≥ 32 µg/mL | ≥ 32 µg/mL | ≥ 32 µg/mL | ≥ 32 µg/mL | ≥ 32 µg/mL
CC[C@H]1OC(=O)C(C)C(=O)[C@H](C)[C@@H](O[C@@H]2O[C@H](CNCC3CC3)CC(N(C)C)[C@H]2O)[C@](C)(OC)C[C@@H](C)CN(C)[C@H](C)[C@H]2NC(=O)O[C@@]21C (stereo partly shown) [Compound 162, 3-Descladinosyl-3-oxo-6-O-methyl-11,12-dideoxy-12,11-(oxycarbonylimino)-6′-cyclopropylmethylamino Azithromycin] | ≥ 32 µg/mL | ≥ 32 µg/mL | ≥ 32 µg/mL | 8 to 32 µg/mL (≈ 11.5 to 45.9 µM) | ≤ 4 µg/mL
CC[C@H]1OC(=O)C(C)C(=O)[C@H](C)[C@@H](O[C@@H]2OC(CNc3ccc(Cl)cc3)CC(N(C)C)C2O)[C@](C)(OC)C[C@@H](C)CN[C@H](C)[C@H]2NC(=O)O[C@@]21C (stereo partly shown) [Compound 49] | ≥ 32 µg/mL | ≥ 32 µg/mL | 8 to 32 µg/mL (≈ 10.8 to 43.3 µM) | ≥ 32 µg/mL | 8 to 32 µg/mL (≈ 10.8 to 43.3 µM)
CC[C@H]1OC(=O)[C@@]2(C)CCOC(C)(C[C@@H](C)CN(C)[C@H](C)[C@H]3NC(=O)O[C@@]31C)[C@H](O[C@@H]1OC(CNC(C)C)CC(N(C)C)C1O)[C@@H](C)C2=O (stereo partly shown) [Compound 214] | ≥ 32 µg/mL | ≥ 32 µg/mL | ≤ 4 µg/mL | ≤ 4 µg/mL | ≤ 4 µg/mL
CC[C@H]1OC(=O)[C@@]2(C)CCO[C@](C)(C[C@@H](C)CN[C@H](C)[C@H]3NC(=O)O[C@@]31C)[C@H](O[C@@H]1O[C@H](CN3CCCCC3)C[C@H](N(C)C)[C@H]1O)[C@@H](C)C2=O [Compound 199] | ≥ 32 µg/mL | ≥ 32 µg/mL | ≥ 32 µg/mL | ≥ 32 µg/mL | ≥ 32 µg/mL
CC[C@H]1OC(=O)C(C)C(=O)[C@H](C)[C@@H](OC2OC(CNCCN(C)C)CC(N(C)C)C2O)[C@](C)(OC)C[C@@H](C)CN[C@H](C)[C@H]2NC(=O)O[C@@]21C (stereo partly shown) [Compound 130, 3-Descladinosyl-3-oxo-6-O-methyl-N9a-desmethyl-11,12-dideoxy-12,11-(oxycarbonylimino)-6′-[(2-dimethylamino)ethylamino]Azithromycin] | ≥ 32 µg/mL | ≥ 32 µg/mL | ≥ 32 µg/mL | ≥ 32 µg/mL | ≥ 32 µg/mL
CC[C@H]1OC(=O)C(C)C(=O)[C@H](C)[C@@H](OC2OC(CN(C)OC)CC(N(C)C)C2O)[C@](C)(OC)C[C@@H](C)CN[C@H](C)[C@H]2NC(=O)O[C@@]21C (stereo partly shown) [Compound 145] | ≥ 32 µg/mL | ≥ 32 µg/mL | ≥ 32 µg/mL | 8 to 32 µg/mL (≈ 11.9 to 47.6 µM) | 8 to 32 µg/mL (≈ 11.9 to 47.6 µM)
CC[C@H]1OC(=O)C(C)C(=O)[C@H](C)[C@@H](OC2OC(CNCCO)CC(N(C)C)C2O)[C@](C)(OC)C[C@@H](C)CN[C@H](C)[C@H]2NC(=O)O[C@@]21C (stereo partly shown) [Compound 115, 3-Descladinosyl-3-oxo-6-O-methyl-N9a-desmethyl-11,12-dideoxy-12,11-(oxycarbonylimino)-6′-(2-hydroxyethylamino) Azithromycin] | ≥ 32 µg/mL | ≥ 32 µg/mL | ≥ 32 µg/mL | ≥ 32 µg/mL | ≥ 32 µg/mL

From patent US11673910B2, “Macrolides with modified desosamine sugars and uses thereof” (Zikani Therapeutics, Inc., priority 2017, dated 2023)
